From BindingDB's records for doi:10.1021/acs.jmedchem.6b01751 (Queen Mary University of London, 2017)

assay: Inhibition of RIP1 in mouse L929 cells assessed as reduction in TNFalpha/QVD-Oph-induced necrosis after 24 hrs by Cell Titer-Glo luminescent cell viability assay

| Compound | IC50 |
| --- | --- |
| CN1C(=O)[C@@H](NC(=O)c2n[nH]c(Cc3ccccc3)n2)COc2ccccc21 | 1.3 µM |

assay: Inhibition of RIP1 in human U937 cells assessed as reduction in TNFalpha/QVD-Oph-induced necrosis after 24 hrs by Cell Titer-Glo luminescent cell viability assay

| Compound | IC50 |
| --- | --- |
| CN1C(=O)[C@@H](NC(=O)c2cc(Cc3ccccc3)on2)COc2ccc(-c3n[nH]c(=O)o3)cc21 | 0.0032 µM |
| CN1C(=O)[C@@H](NC(=O)c2ncc(Cc3ccccc3)o2)COc2ccccc21 | 0.001 µM |
| CN1C(=O)[C@@H](NC(=O)c2cc(Cc3ccccc3)n(C)n2)COc2ccccc21 | 0.01 µM |
| CN1C(=O)[C@@H](NC(=O)c2nnc(Cc3ccccc3)o2)COc2ccccc21 | 0.0079 µM |
| CN1C(=O)[C@@H](NC(=O)c2noc(Cc3ccccc3)n2)COc2ccccc21 | 0.005 µM |
| CN1C(=O)[C@@H](NC(=O)c2cnn(Cc3ccccc3)c2)COc2ccccc21 | 0.631 µM |
| CN1C(=O)[C@@H](NC(=O)c2c[nH]c(Cc3ccccc3)n2)COc2ccccc21 | 2 µM |
| O=C(N[C@H]1CCOc2ccccc2NC1=O)c1cc(Cc2ccccc2)on1 | 0.631 µM |
| CN1C(=O)[C@@H](NC(=O)c2ncn(Cc3ccccc3)n2)COc2ccccc21 | 0.0016 µM |
| CN1C(=O)[C@@H](NC(=O)c2cc(Cc3ccccc3)ccn2)COc2ccccc21 | 0.04 µM |
| CN1C[C@H](NC(=O)c2cc(Cc3ccccc3)on2)C(=O)N(C)c2ccccc21 | 0.02 µM |
| CC(=O)Nc1ccc2c(c1)N(C)C(=O)[C@@H](NC(=O)c1cc(Cc3ccccc3)on1)CO2 | 0.0079 µM |
| CC(C)Cc1cc(C(=O)N[C@H]2COc3ccccc3N(C)C2=O)no1 | 6.31 µM |
| CCCCCc1cc(C(=O)N[C@H]2COc3ccccc3N(C)C2=O)no1 | 0.126 µM |
| COC(=O)Nc1ccc2c(c1)N(C)C(=O)[C@@H](NC(=O)c1cc(Cc3ccccc3)on1)CO2 | 0.01 µM |
| CN1C(=O)[C@@H](NC(=O)c2cc(Cc3ccccc3)on2)COc2ccc(NS(C)(=O)=O)cc21 | 0.013 µM |
| CN1C(=O)[C@@H](NC(=O)c2cc(Cc3ccccc3)on2)COc2ccc(-c3cc[nH]n3)cc21 | 0.0063 µM |
| CN1C(=O)[C@@H](NC(=O)c2coc(Cc3ccccc3)n2)COc2ccccc21 | 2.51 µM |
| CN1C(=O)[C@@H](NC(=O)c2cn(Cc3ccccc3)nn2)COc2ccccc21 | 0.025 µM |
| CN1C(=O)[C@@H](NC(=O)c2cccc(Cc3ccccc3)c2)COc2ccccc21 | 0.398 µM |
| CN1C(=O)[C@@H](NC(=O)c2cc(CC3CCCCC3)on2)COc2ccccc21 | 0.501 µM |
| CN1C(=O)[C@@H](NC(=O)c2cn(Cc3ccccc3)cn2)COc2ccccc21 | 0.0063 µM |
| CN1C(=O)[C@@H](NC(=O)c2nnn(Cc3ccccc3)n2)COc2ccccc21 | 0.0025 µM |
| CCN1C(=O)[C@@H](NC(=O)c2cc(Cc3ccccc3)on2)COc2ccccc21 | 7.94 µM |
